# Test results as given in US20040029908A1, “Tricyclo compounds, a process for their production and a pharmaceutical composition containing the same” (FUJISAWA PHARMACEUTICAL CO., LTD., priority 1984, published 2004).
# Legend:
# ddY mice = test: Acute toxicities in ddY mice by intraperitoneal injection; assay type: in vivo; conditions: ddY mice, intraperitoneal injection
# [1] = test system: Contact-Delayed Hypersensitivity in ICR mice; test: Contact-Delayed Hypersensitivity in mice (picryl chloride); assay type: in vivo, mouse
# Description: Female ICR mice were used for this test. A tenth of a 7% (w/v) solution of picryl chloride in ethanol prepared at the time of the experiment was applied to the ventral surface of previously shaved animals. Such a sensitization was performed twice at intervals of 7 days. Seven days later, the thickness of the ears were measured with an ordinary engineer's micrometer and a 1% (w/v) solution of picryl chloride in olive oil was painted to both surfaces of each ear. The inflammation was evaluated 24 hours later by measuring the both of ears. The results were expressed as the average increase in thickness of the ears measured in units of 10 ^−3cm. The FR-900506 substance was injected for 14 days orally, starting from the first sensitization.
# Fusarium oxysporum = test: Antimicrobial activity, serial agar dilution method in Sabouraud agar; assay type: cell-based; conditions: 30° C., 24 hours
# Description: (§1) Antimicrobial activities of the tricyclo compounds (I) against various fungi were determined by a serial agar dilution method in a Sabouraud agar. Minimum inhibitory concentrations (MIC) were expressed in terms of μg/ml after incubation at 30° C. for 24 hours.
# [2] = test system: Aspergillus fumigatus IFO 5840; test: as above; assay type: cell-based; conditions: IFO5840, 30° C., 24 hours
# Description: as §1
# [3] = test system: Experimental Allergic Encephalomyelytis in SJL/J Mice; test: Experimental Allergic Encephalomyelitis (EAE) in SJL/J Mice; assay type: in vivo, mouse
# [4] = test system: mouse MLR (C57BL/6 responder cells, mitomycin C treated BALB/C stimulator cells); test: Suppression of in vitro Mixed Lymphocyte Reaction (MLR), 3H-thymidine uptake; assay type: cell-based
# Description: The MLR test was performed in microtiter plates, with each well containing 5 ×10^5 C57BL/6 responder cells (H-2^b ), 5 ×10^5 mitomycin C treated (25μg/ml mitomycin C at 37° C. for 30 minutes and washed three times with RPMI 1640 medium) BALB/C stimulator cells (H-2^d) in 0.2 ml RPMI 1640 medium supplemented with 10% fetal calf serum, 2mM sodium hydrogen carbonate, penicillin (50 unit/ml) and streptomycin (50 μg/ml) . The cells were incubated at 37 ° C. in humidified atmosphere of 5% carbon dioxide and 95% of air for 68 hours and pulsed with ^3H-thymidine (0.5 μCi) 4 hours before the cells were collected. The object compound of this invention was dissolved in ethanol and further diluted in RPMI 1640 medium and added to the cultures to give final concentrations of 0.1 μg/ml or less.
# [5] = test system: Type II Collagen-Induced-Arthritis in female Lewis rats; test: Type II Collagen-Induced-Arthritis in Rats; assay type: in vivo, rat; conditions: observation period of 3 weeks
# Description: Collagen was dissolved in cold 0.01 M acetic acid at a concentration of 2 mg/ml. The solution was emulsified in an equal volume of incomplete Freund's adjuvant. A total volume of 0.5 ml of the cold emulsion was injected intradermally at several sites on the back and one or two sites into the tail of female Lewis rats. The FR-900506 substance was dissolved in olive oil and administered orally. Control rats immunized with same amount of type II collagen received oral administrations of olive oil alone. Incidences of the arthritis were observed.
# [6] = test system: Interleukin-2 (IL-2) Production; test: Inhibition of Interleukin-2 (IL-2) Production in MLR, CTLL-2 bioassay; assay type: cell-based, mouse; conditions: for IL-2: MLR supernatant at 48 hours
# Description: The mixed lymphocyte reaction (MILR) was performed in microtiter plates, with each well containing 5 ×10^5 C57BL/6 responder cells (H-2^b), 5 ×10^5 mitomycin C treated (25 μg/ml mitomycin C at 37° C. for 30 minutes and washed three times pith RPMI 1640 medium) BALB/C stimulator cells ([…]) in 0.2 ml RPMI 1640 medium supplemented with 10% fetal calf serum, 2mM sodium hydrogen carbonate, penicillin 20 (50 unites/ml) and streptomycin (50 μg/ml) . The cells were incubated at 37° C. in humidified atmosphere of 5% carbon dioxide and 95% of air for 48 hours and the supernatant was collected. The FR-900506 substance was dissolved in ethanol and further diluted in RPMI 1640 medium and added to the cultures to give final concentrations of 0.1 μg/ml or less.
# The IL-2 activity was measured according to the method described by S. Gillis et. al. [Journal of Inununology, Vol. 120, page 2027, (1978)]. The IL-2 dependent CTLL-2 cell line was used to quantitate IL-2 activity. Cells (5 ×10^3/well) were cultured at 37° C. for 24 hours with various dilutions of IL-2 containing supernatant from MLR. The uptake of ^3H-thymidine was measured by pulsing cultures with 0.5 uCi of 1T-thymidine for 6 hours. The unit value was calculated by dilution analysis of test sample and was compared with a laboratory standard preparation in which 100 units are equivalent to the amount of IL-2 necessary to achieve 50% proliferation of CTLL-2 cells.
# [7] = test system: Skin Allograft Survival in Rats (Fischer donor, WKA recipient); test: Skin Allograft Survival in Rats; assay type: in vivo, rat; conditions: daily treatment, intramuscularly, 14 consecutive days
# Description: Vental allografts from donor (Fischer) rats were grafted onto the lateral thoracic area of recipient (WKA) rats. The dressings were removed on day 5. The grafts were inspected daily until rejection which was defined as more than 90% necrosis of the graft epitherium.
# The FR-900506 substance was dissolved in olive oil and administered intramuscularly for 14 consecutive days, beginning at the day of transplantation.
smiles,measurement,setting,value
"C=CCC1/C=C(\C)CC(C)CC(OC)C2OC(O)(C(=O)C(=O)N3CCCCC3C(=O)OC(/C(C)=C/C3CCC(O)C(OC)C3)C(C)C(O)CC1=O)C(C)CC2OC (centres unmarked) [FR-900506, 17-Allyl-1,14-dihydroxy-12-[2-(4-hydroxy-3-methoxycyclohexyl)-1-methyvinyl]-23-25-dimethoxy-13,19,21,27-tetramethyl-11,28-dioxa-4-azatricyclo[22.3.1.0^4,9]octacos-18-ene-2,3,10,16-tetraone]",the dead at dose of 100 mg/kg,ddY mice,could not be observed
same,Increase of ears at 24 hours after challenge,[1]; 32 mg/kg orally for 14 days,6.4 ± 1.6 × 10^−3 cm
same,Increase of ears at 24 hours after challenge,[1]; 100 mg/kg orally for 14 days,2.2 ± 1.5 × 10^−3 cm
same,MIC,Fusarium oxysporum,0.05 µg/mL
same,MIC,[2],0.025 µg/mL
same,Number of Animals with Disease at Day 24,[3]; 32 mg/kg orally for 19 days starting on day 0,0/5
same,Development of clinical signs of EAE (in words),[3]; orally for 19 days starting on day 0,clearly prevented the development of clinical signs of EAE
same,Radioactivities (mean C.P.M. ± S.E.),[4]; 0.078 ng/ml,7189 ± 365 C.P.M.
same,Suppression (%),[4]; 0.078 ng/ml,27.6%
same,Radioactivities (mean C.P.M. ± S.E.),[4]; 0.156 ng/ml,5490 ± 431 C.P.M.
same,Suppression (%),[4]; 0.156 ng/ml,44.7%
same,Radioactivities (mean C.P.M. ± S.E.),[4]; 0.313 ng/ml,3880 ± 222 C.P.M.
same,Suppression (%),[4]; 0.313 ng/ml,60.9%
same,Radioactivities (mean C.P.M. ± S.E.),[4]; 0.625 ng/ml,614 ± 57 C.P.M.
same,Suppression (%),[4]; 0.625 ng/ml,93.8%
same,Radioactivities (mean C.P.M. ± S.E.),[4]; 1.25 ng/ml,168 ± 23 C.P.M.
same,Suppression (%),[4]; 1.25 ng/ml,98.3%
same,Radioactivities (mean C.P.M. ± S.E.),[4]; 2.5 ng/ml,54 ± 4 C.P.M.
same,Suppression (%),[4]; 2.5 ng/ml,99.5%
same,IC50,"[4]; Lymphocyte, mouse MLR, 68 hours, 3H-thymidine",0.00026 µg/mL
same,Incidence of Arthritis,[5]; 3.2 mg/kg per day orally for 14 days,0/5
same,Suppression of arthritis induction (in words),[5]; daily treatment for 14 days,complete suppression of arthritis induction
same,Production of IL-2 from mouse MLR (in words),[6],inhibited the production of Il-2 from mouse MLR
same,IL-2,[6]; 0.1 nM,25.0 units/ml
same,IL-2,[6]; 0.3 nM,0.2 units/ml
same,IL-2,[6]; 1 nM,0 units/ml
same,IL-2,[6]; 10 nM,0 units/ml
same,inhibition at 0.0001 µM,"[6]; Mus musculus, CTLL-2, 0.1 nM",34.4%
same,inhibition at 0.0003 µM,"[6]; Mus musculus, CTLL-2, 0.3 nM",99.5%
same,inhibition at 0.001 µM,"[6]; Mus musculus, CTLL-2, 1 nM",100%
same,inhibition at 0.01 µM,"[6]; Mus musculus, CTLL-2, 10 nM",100%
same,Effect on skin allograft survival (in words),[7],clearly prolonged skin allograft survival
